Where “and” joins values, the source holds several entries; their conditions need not be identical. Equal values may be shown once.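 1) Cells in 96-well plates. 2) Compound, 48 h, 5 concentrations. 3) Linear interpolation between surrounding doses. 4) Unreached endpoint = highest concentration. GI50 is the concentration that inhibits growth by half. TGI denotes the concentration required for complete inhibition of growth.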
Experiments:
Test in all cases: NCI anticancer screen, dose series, 48 h
NCI-H23 lung = tested on: NCI-H23 lung
HT29 colon = tested on: HT29 colon
A498 renal = tested on: A498 renal
MALME-3M melanoma = tested on: MALME-3M melanoma
OVCAR-4 ovarian = tested on: OVCAR-4 ovarian
NCI/ADR-RES ovarian = tested on: NCI/ADR-RES ovarian
SNB-19 CNS = tested on: SNB-19 CNS
NCI-H226 lung = tested on: NCI-H226 lung
CCRF-CEM leukemia = tested on: CCRF-CEM leukemia
RPMI-8226 leukemia = tested on: RPMI-8226 leukemia

SMILES | GI50 (NCI-H23 lung) | TGI (NCI-H23 lung) | GI50 (HT29 colon) | TGI (HT29 colon) | GI50 (A498 renal) | TGI (A498 renal) | GI50 (MALME-3M melanoma) | TGI (MALME-3M melanoma) | GI50 (OVCAR-4 ovarian) | TGI (OVCAR-4 ovarian) | GI50 (NCI/ADR-RES ovarian) | TGI (NCI/ADR-RES ovarian) [µM] | GI50 (SNB-19 CNS) | TGI (SNB-19 CNS) | GI50 (NCI-H226 lung) | TGI (NCI-H226 lung) | GI50 (CCRF-CEM leukemia) | TGI (CCRF-CEM leukemia) [µM] | GI50 (RPMI-8226 leukemia) | TGI (RPMI-8226 leukemia)
O=C(O)c1nc(NCc2nc3cc(Cl)ccc3o2)n[nH]1 | > 100 µM | > 100 µM | > 100 µM | > 100 µM | > 100 µM | > 100 µM | > 100 µM | > 100 µM | > 100 µM | > 100 µM | > 100 µM | > 100 | > 100 µM | > 100 µM | > 100 µM | > 100 µM | > 100 µM | > 100 | > 100 µM | > 100 µM
O=S(=O)(Nc1ccc(Br)cc1)c1ccc(-c2cnc(C3CC3)o2)cc1 | 2.99 µM | 15.1 µM | 0.715 µM | 15.9 µM | 0.31 µM | 2.63 µM | 1.66 µM | 17.8 µM | 3.8 µM | 18 µM | 1 µM | 10.4 | 3.98 µM | 18.3 µM | 6.26 µM | 25 µM | 2.14 µM | 16.2 | 2.62 µM | 14.5 µM
C=C1CCC2C3(C)COC(C)(C)OC3CCC2(C)C1C/C=C1/C(=O)OCC1OC(C)=O (stereo not given) | 4.34 µM | 16.1 µM | 1.89 µM | 4.85 µM | 16.6 µM | 31.5 µM | 3.11 µM | 10.1 µM | 2.6 µM | 10.1 µM | 3.06 µM | 11.1 | 15.6 µM | 29 µM | 12.8 µM | 33.7 µM | 1.81 µM | 11.5 | 2.24 µM | 7.49 µM
C=CCc1c(Cl)nc(Cl)nc1Cl | – | 1.81 µM | – | 0.805 µM | – | 3.49 µM | – | 1.47 µM | – | 0.84 µM | – | > 49.4 | – | 2.21 µM | – | 1.69 µM | – | 0.0234 | – | > 100 µM
Cn1ncc(-c2ccc3c(=O)[nH]nc(CN)c3c2)c1-c1c(F)c(Cl)cc(OC2CC2)c1C#N | 15.3 µM and 14.3 µM | 32 µM and 29.6 µM | 11.6 µM and 10.3 µM | 29.6 µM and 22.7 µM | 16 µM and 14.3 µM | 29.8 µM and 27.5 µM | 14.2 µM and 12.2 µM | 28.8 µM and 25.5 µM | 14.5 µM and 12.6 µM | 29.1 µM and 26.2 µM | 35 µM and 25.5 µM | > 100 | 15.3 µM and 14.6 µM | 31.7 µM and 29.5 µM | 15.7 µM and 13.2 µM | 32 µM and 27.4 µM | 22.3 µM and 33.4 µM | > 100 | 14.9 µM and 16 µM | 47.5 µM and 47.8 µM
N#CC(C#N)=C/C=C(\Cl)c1ccc(Cl)cc1 | 2.66 µM | 9.04 µM | 0.98 µM | – | 20.5 µM | 38.6 µM | 2.16 µM | 7.63 µM | 5.12 µM | 55.6 µM | 4.57 µM | 16.2 | 18.5 µM | > 55.2 µM | 7.69 µM | 33.9 µM | 0.425 µM | > 100 | 4.12 µM | > 100 µM
C1CSCCCSCCCSCCCSCCCSCCCSCCCSCCCSC1 | – | > 100 µM | – | > 100 µM | – | > 100 µM | – | > 100 µM | – | > 100 µM | – | > 100 | – | > 100 µM | – | > 100 µM | – | > 100 | – | > 100 µM
O=C(c1ccc2ccccc2c1)c1c(C(F)(F)F)n([O-])c2ccc(C(F)(F)F)cc2[n+]1=O | 3.4 µM | 10.2 µM | 0.439 µM | 1.43 µM | 0.757 µM | 1.97 µM | 1.2 µM | 2.71 µM | 0.249 µM | 0.607 µM | 1.7 µM | 4.75 | 1.76 µM | 3.2 µM | 1.06 µM | 3.35 µM | 0.181 µM | 0.547 | 0.864 µM | 2.88 µM
CC(CO)Nc1cc(-c2[nH]c3cccnc3c2-c2ccc(F)cc2)ccn1 (stereo not given) | > 25 µM | > 25 µM | 9.77 µM | > 25 µM | 4.36 µM | 25 µM | 16.9 µM | > 25 µM | > 25 µM | > 25 µM | > 25 µM | > 25 | > 21.6 µM | > 25 µM | > 23.8 µM | > 25 µM | > 25 µM | > 25 | 17 µM | > 25 µM
COc1ccc(C2=Nn3c(nnc3-c3cc(Cl)cc(Cl)c3Cl)SC2)cc1 | 0.701 µM | > 100 µM | 0.336 µM | – | 0.583 µM | > 100 µM | 0.44 µM | > 50.5 µM | 0.805 µM | > 100 µM | 0.248 µM | 1.26 | 0.402 µM | 55.1 µM | 0.778 µM | > 100 µM | 0.519 µM | > 100 | 0.627 µM | > 100 µM
CN(C)CCNC(=O)Cn1ccc(=O)c2cc([N+](=O)[O-])ccc21 | – | > 100 µM | – | > 100 µM | – | > 100 µM | – | > 100 µM | – | – | – | > 100 | – | > 100 µM | – | > 100 µM | – | > 100 | – | > 100 µM
CC(=O)c1c(O)c(C)c(O)c(Cc2c(O)c3c(c(C(=O)/C=C/c4ccccc4)c2O)OC(C)(C)C=C3)c1O | – | 14 µM | – | 13.1 µM | – | 6.71 µM | – | 12.6 µM | – | 29.4 µM | – | 15.8 | – | 19.4 µM | – | 23 µM | – | > 100 | – | > 100 µM
Cc1c2cnccc2c(C)c2c1c1cc(C#N)ccc1n2C | 0.172 µM | 0.649 µM | 0.0871 µM | 1.05 µM | 0.11 µM | 0.285 µM | 0.195 µM | 0.548 µM | 0.245 µM | 0.988 µM | 0.117 µM | 0.736 | 0.181 µM | 1.94 µM | 0.112 µM | 0.379 µM | 0.249 µM | 2.83 | 0.202 µM | 0.907 µM
CN(C)c1cc2ccccc2oc1=O | – | > 100 µM | – | > 100 µM | – | > 100 µM | – | > 100 µM | – | > 100 µM | – | > 100 | – | > 100 µM | – | > 100 µM | – | > 100 | – | > 100 µM
COc1cc(/C=C/C(=O)/C=C/c2cc(OC)c3c(c2)OCO3)cc2c1OCO2 | 7.69 µM | > 100 µM | 2.64 µM | 6.7 µM | > 100 µM | > 100 µM | > 100 µM | > 100 µM | 52.8 µM | > 100 µM | 52.8 µM | > 100 | 10.3 µM | > 100 µM | 34.8 µM | > 100 µM | 5.95 µM | > 100 | – | –

Reference: PubChem BioAssay (NCI)
